One experiment concerns the target Carbonic anhydrase 1 (Homo sapiens, UniProt P00915).
Another experiment deals with Carbonic anhydrase 2 (Homo sapiens, UniProt P00918).
The target in experiment [1] is Carbonic anhydrase 5A, mitochondrial (Homo sapiens, UniProt P35218).
Experiment [2] concerns the target Carbonic anhydrase 5B, mitochondrial (Homo sapiens, UniProt Q9Y2D0).

Each structure is given as a SMILES string.

Carbonic anhydrase 5A, mitochondrial, sequence (P35218 whole entry): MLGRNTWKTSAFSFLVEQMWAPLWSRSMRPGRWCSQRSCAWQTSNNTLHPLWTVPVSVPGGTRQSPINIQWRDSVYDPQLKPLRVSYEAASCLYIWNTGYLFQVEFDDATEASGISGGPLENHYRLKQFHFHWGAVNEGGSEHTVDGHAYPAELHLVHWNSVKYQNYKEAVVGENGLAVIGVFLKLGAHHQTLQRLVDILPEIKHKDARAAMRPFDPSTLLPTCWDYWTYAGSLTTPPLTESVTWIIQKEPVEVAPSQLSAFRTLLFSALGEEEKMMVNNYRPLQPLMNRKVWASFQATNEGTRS
Carbonic anhydrase 1, sequence (P00915 whole entry): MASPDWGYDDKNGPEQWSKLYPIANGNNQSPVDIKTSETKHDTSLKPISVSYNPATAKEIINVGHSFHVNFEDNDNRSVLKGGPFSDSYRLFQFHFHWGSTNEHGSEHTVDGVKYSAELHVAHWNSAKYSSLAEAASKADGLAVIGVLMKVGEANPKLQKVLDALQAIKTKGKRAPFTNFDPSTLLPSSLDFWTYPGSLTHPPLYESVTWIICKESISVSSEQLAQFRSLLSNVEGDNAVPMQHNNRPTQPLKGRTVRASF
Carbonic anhydrase 5B, mitochondrial, sequence (Q9Y2D0 whole entry): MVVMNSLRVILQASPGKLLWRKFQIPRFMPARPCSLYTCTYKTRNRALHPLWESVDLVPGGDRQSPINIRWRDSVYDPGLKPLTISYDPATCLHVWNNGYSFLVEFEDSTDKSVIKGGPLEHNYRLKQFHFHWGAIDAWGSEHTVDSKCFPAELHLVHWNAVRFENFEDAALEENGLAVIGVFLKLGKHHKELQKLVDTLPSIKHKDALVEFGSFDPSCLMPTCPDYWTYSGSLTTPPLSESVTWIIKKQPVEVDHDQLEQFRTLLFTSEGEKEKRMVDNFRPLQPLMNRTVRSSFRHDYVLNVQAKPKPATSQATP

As to `CC1(C)C2CC[C@]1(CS(=O)(=O)NCc1ccc(S(N)(=O)=O)cc1)C(=O)C2`, the Ki on Carbonic anhydrase 1 is 920 nM; at Carbonic anhydrase 2 it was 1560 nM; in experiment [1], 16.6 nM; in experiment [2], 40.3 nM.

Consider `CC1(C)C2CC[C@@]1(CS(=O)(=O)NCc1ccc(S(N)(=O)=O)cc1)C(=O)C2`, for which the inhibition constant (Ki) on Carbonic anhydrase 1 came to 1040 nM; at Carbonic anhydrase 2, 2460 nM; in experiment [1], 27.5 nM; in experiment [2], 67.3 nM.

By Ki is commonly meant the dissociation constant of the complex between target and ligand, obtained from inhibition or displacement. Low values mean tighter binding, high ones weaker binding.

The values above are taken from ChEMBL document CHEMBL1681677 (Bioorg Med Chem Lett, 2011).
